Source: US6855710B2, “Substituted indolines with an inhibitory effect on various kinases and complexes of CDKs” (Boehringer Ingelheim Pharma KG, priority 1998, dated 2005)

`COc1cccc(/C(Nc2ccc(CN(C)C)cc2)=C2/C(=O)Nc3ccccc32)c1` [Example 217, (Z)-3-[1-(4-dimethylaminomethyl-phenylamino)-1-(3-methoxyphenyl)-methylidene]-2-indolinone] gave a melting point of 193 to 194 °C. `CC(=O)NCC(=O)N(C)c1ccc(N/C(=C2\C(=O)Nc3ccccc32)c2ccccc2)cc1` [Example 367, (Z)-3-{1-[4-(N-acetylaminomethylcarbonyl-N-methyl-amino)-phenylamino]-1-phenyl-methylidene}-2-indolinone] showed a melting point of 255 to 256 °C. `CN(C)CC(=O)Nc1ccc(N/C(=C2\C(=O)Nc3ccc([N+](=O)[O-])cc32)c2ccccc2)cc1` [Example 94, (Z)-3-[1-(4-dimethylaminomethylcarbonylamino-phenylamino)-1-phenyl-methylidene]-5-nitro-2-indolinone] showed a melting point of 254 to 257 °C. For `CC(=O)N(CCN1CCOCC1)c1ccc(N/C(=C2\C(=O)Nc3ccc([N+](=O)[O-])cc32)c2ccccc2)cc1` [Example 334, (Z)-3-{1-[4-(N-(2-morpholinoethyl)-N-acetyl-amino)-phenylamino]-1-phenyl-methylidene}-5-nitro-2-indolinone], the melting point was 229 °C. In the case of `CN(C)C(=O)C1CCN(CCc2ccc(N/C(=C3\C(=O)Nc4ccc([N+](=O)[O-])cc43)c3ccccc3)cc2)CC1` [Example 264, (Z)-3-{1-[4-(2-(4-dimethylaminocarbonyl-piperidino)-ethyl)-phenylamino]-1-phenyl-methylidene}-5-nitro-2-indolinone], the melting point is reported as 288 °C (dec.). `NS(=O)(=O)c1ccc(N/C(=C2\C(=O)Nc3ccccc32)c2ccccc2)cc1` [Example 396, (Z)-3-{1-[4-(aminosulphonyl)-phenylamino]-1-phenyl-methylidene}-2-indolinone] gave a melting point of 254 °C. With `CCS(=O)(=O)N(CC(=O)N(C)CCN(C)C)c1ccc(N/C(=C2\C(=O)Nc3ccc([N+](=O)[O-])cc32)c2ccccc2)cc1` [Example 296, (Z)-3-{1-[4-(N—((N-(2-dimethylaminoethyl)-N-methyl-amino)-carbonylmethyl)-N-ethylsulphonyl-amino)-phenylamino]-1-phenyl-methylidene}-5-nitro-2-indolinone] the melting point was 117 °C. With `CCOC(=O)CN(c1ccc(N/C(=C2\C(=O)Nc3ccc([N+](=O)[O-])cc32)c2ccccc2)cc1)S(C)(=O)=O` [Example 198, (Z)-3-{-[4-(N-ethoxycarbonylmethyl-N-methylsulphonyl-amino)-phenylamino]-1-phenyl-methylidene}-5-nitro-2-indolinone] the melting point was 236 to 238 °C. `CN(C)CCNc1ccc(N/C(=C2\C(=O)Nc3ccc([N+](=O)[O-])cc32)c2ccccc2)cc1` [Example 326, (Z)-3-{1-[4-(2-dimethylamino-ethylamino)-phenylamino]-1-phenyl-methylidene}-5-nitro-2-indolinone] gave a melting point of 227 to 229 °C. For `CNCCc1ccc(N/C(=C2\C(=O)Nc3ccc([N+](=O)[O-])cc32)c2ccccc2)cc1` [Example 254, (Z)-3-{1-[4-(2-methylamino-ethyl)-phenylamino]-1-phenyl-methylidene}-5-nitro-2-indolinone], the melting point was 250 to 252 °C. In the case of `Cc1ccc(S(=O)(=O)N(CC(=O)N(C)C)c2ccc(N/C(=C3\C(=O)Nc4ccccc43)c3ccccc3)cc2)cc1` [Example 206, (Z)-3-{1-[4-(N-dimethylaminocarbonylmethyl-N-(p-tolylsulphonyl)-amino)-phenylamino]-1-phenyl-methylidene}-2-indolinone], the melting point is reported as 223 to 226 °C. Molecule `CCS(=O)(=O)N(CC(=O)O)c1ccc(N/C(=C2\C(=O)Nc3ccccc32)c2ccccc2)cc1` [Example 298, (Z)-3-{1-[4-(N-carboxymethyl-N-ethylsulphonyl-amino)-phenylamino]-1-phenyl-methylidene}-2-indolinone] has a melting point of 240 to 242 °C. In the case of `CCOC(=O)CNS(=O)(=O)c1ccc(N/C(=C2\C(=O)Nc3ccccc32)c2ccccc2)cc1` [Example 406, (Z)-3-{1-[4-(ethoxycarbonylmethylaminosulphonyl)-phenylamino]-1-phenyl-methylidene}-2-indolinone], the melting point is reported as 196 to 199 °C. `CC(=O)N(CCN(C)C)c1ccc(N/C(=C2\C(=O)Nc3ccc([N+](=O)[O-])cc32)c2ccccc2)cc1` [Example 328, (Z)-3-{1-[4-(N-(2-dimethylaminoethyl)-N-acetyl-amino)-phenylamino]-1-phenyl-methylidene}-5-nitro-2-indolinone] showed a melting point of 228 to 230 °C. Work on `CN(CC(=O)N(C)c1ccc(N/C(=C2\C(=O)Nc3ccccc32)c2ccccc2)cc1)Cc1ccccc1` [Example 370, (Z)-3-{1-[4-(N—(N-benzyl-N-methyl-aminomethylcarbonyl)-N-methyl-amino)-phenylamino]-1-phenyl-methylidene}-2-indolinone] yielded a melting point of 195 to 197 °C. In the case of `CC1CCN(CCc2ccc(N/C(=C3\C(=O)Nc4ccc([N+](=O)[O-])cc43)c3ccccc3)cc2)CC1` [Example 259, (Z)-3-{1-[4-(2-(4-methylpiperidino)-ethyl)-phenylamino]-1-phenyl-methylidene}-5-nitro-2-indolinone], the melting point is reported as 252 to 253 °C. In the case of `CCOC(=O)CN(C)C(=O)c1ccc(N/C(=C2\C(=O)Nc3ccccc32)c2ccccc2)cc1` [Example 394, (Z)-3-{1-[4-(N-ethoxycarbonylmethyl-N-methyl-aminocarbonyl)-phenylamino]-1-phenyl-methylidene}-2-indolinone], the melting point is reported as 95 to 98 °C. For `CS(=O)(=O)N(CC(N)=O)c1ccc(N/C(=C2\C(=O)Nc3ccccc32)c2ccccc2)cc1` [Example 191, (Z)-3-{1-[4-(N-aminocarbonylmethyl-N-methylsulphonyl-amino)-phenylamino]-1-phenyl-methylidene}-2-indolinone], the melting point was 276 to 278 °C. In the case of `O=CN(CCN1CCOCC1)c1ccc(N/C(=C2\C(=O)Nc3ccc([N+](=O)[O-])cc32)c2ccccc2)cc1` [Example 333, (Z)-3-{1-[4-(N-(2-morpholinoethyl)-N-formyl-amino)-phenylamino]-1-phenyl-methylidene}-5-nitro-2-indolinone], the melting point is reported as 207 °C. `COC1CCN(CCc2ccc(N/C(=C3\C(=O)Nc4ccc([N+](=O)[O-])cc43)c3ccccc3)cc2)CC1` [Example 261, (Z)-3-{1-[4-(2-(4-methoxypiperidino)-ethyl)-phenylamino]-1-phenyl-methylidene}-5-nitro-2-indolinone] gave a melting point of 212 to 214 °C. Molecule `O=C1Nc2ccccc2/C1=C(/Nc1ccc(C(=O)O)cc1)c1ccccc1` [Example 17, (Z)-3-[1-(4-carboxy-phenylamino)-1-phenyl-methylidene]-2-indolinone] has a melting point of 312 to 316 °C. Molecule `CCCS(=O)(=O)N(CCN(C)C)c1ccc(N/C(=C2\C(=O)Nc3ccc([N+](=O)[O-])cc32)c2ccccc2)cc1` [Example 310, (Z)-3-{1-[4-(N-(2-dimethylaminoethyl)-N-propylsulphonyl-amino)-phenylamino]-1-phenyl-methylidene}-5-nitro-2-indolinone] has a melting point of 212 °C. For `CCNCCc1ccc(N/C(=C2\C(=O)Nc3ccc([N+](=O)[O-])cc32)c2ccccc2)cc1` [Example 255, (Z)-3-{1-[4-(2-ethylamino-ethyl)-phenylamino]-1-phenyl-methylidene}-5-nitro-2-indolinone], the melting point was 235 to 237 °C. `CN(C)CCN(C)CC(=O)N(C)c1ccc(N/C(=C2\C(=O)Nc3ccccc32)c2ccccc2)cc1` [Example 375, (Z)-3-{1-[4-(N—(N-(2-dimethylaminoethyl)-N-methyl-aminomethylcarbonyl)-N-methylamino)-phenylamino]-1-phenyl-methylidene}-2-indolinone] showed a melting point of 167 to 169 °C. In the case of `CC(=O)c1ccc(N/C(=C2\C(=O)Nc3ccccc32)c2ccccc2)cc1` [Example 60, (Z)-3-[1-(4-acetylphenylamino)-1-phenyl-methylidene]-2-indolinone], the melting point is reported as 207 to 209 °C. For `O=C1Nc2ccc([N+](=O)[O-])cc2/C1=C(/Nc1ccccc1)c1ccc(CN2C(=O)c3ccccc3C2=O)cc1` [Example 153, (Z)-3-[1-phenylamino-1-(4-phthalimidomethyl-phenyl)-methylidene]-5-nitro-2-indolinone], the melting point was 334 to 336 °C (dec.). With `CCOC(=O)CNCc1cccc(N/C(=C2\C(=O)Nc3ccc([N+](=O)[O-])cc32)c2ccccc2)c1` [Example 111, (Z)-3-[1-(3-ethoxycarbonylmethylaminomethyl-phenylamino)-1-phenyl-methylidene]-5-nitro-2-indolinone] the melting point was 130 to 133 °C. With `CCS(=O)(=O)N(CCN1CCOCC1)c1ccc(N/C(=C2\C(=O)Nc3ccccc32)c2ccccc2)cc1` [Example 308, (Z)-3-{1-[4-(N-(2-morpholinoethyl)-N-ethylsulphonyl-amino)-phenylamino]-1-phenyl-methylidene}-2-indolinone] the melting point was 222 to 224 °C. `CN(C)C(=O)CN(c1ccc(N/C(=C2\C(=O)Nc3ccccc32)c2ccccc2)cc1)S(=O)(=O)Cc1ccccc1` [Example 207, (Z)-3-{1-[4-(N-dimethylaminocarbonylmethyl-N-benzylsulphonyl-amino)-phenylamino]-1-phenyl-methylidene}-2-indolinone] showed a melting point of 133 to 135 °C. Work on `CCOC(=O)Cc1cccc(N/C(=C2\C(=O)Nc3ccccc32)c2ccccc2)c1` [Example 11, (Z)-3-[1-(3-ethoxycarbonylmethyl-phenylamino)-1-phenyl-methylidene]-2-indolinone] yielded a melting point of 178 to 181 °C. Work on `CNC(=O)CN(c1ccc(N/C(=C2\C(=O)Nc3ccccc32)c2ccccc2)cc1)S(C)(=O)=O` [Example 192, (Z)-3-{1-[4-(N-methylaminocarbonylmethyl-N-methylsulphonyl-amino)-phenylamino]-1-phenyl-methylidene}-2-indolinone] yielded a melting point of 268 to 270 °C. Molecule `CC(=O)N(C)c1ccc(N/C(=C2\C(=O)Nc3ccc([N+](=O)[O-])cc32)c2ccccc2)cc1` [Example 98, (Z)-3-{1-[4-(N-acetyl-N-methyl-amino)-phenylamino]-1-phenyl-methylidene}-5-nitro-2-indolinone] has a melting point of 305 to 307 °C.
